Results from ChEMBL document CHEMBL1938230, “6-Position optimization of tricyclic 4-quinolone-based inhibitors of glycogen synthase kinase-3β: discovery of nitrile derivatives with picomolar potency” (Bioorg Med Chem Lett, 2012).

Columns and labels:
[1] = target: eIF-2-alpha kinase GCN2 (Homo sapiens) (UniProt Q9P2K8); experiment: Inhibition of human GCN2 domain2 in HL-60 cells lysate assessed as reduction of labeling of acyl-phosphate ATP probe at 100 nM; type: cell-free
[2] = target: T1, Eukaryotic translation initiation factor 2-alpha kinase 3 (Homo sapiens) (UniProt Q9NZJ5); experiment: Inhibition of human PEK in HL-60 cells lysate assessed as reduction of labeling of acyl-phosphate ATP probe at 100 nM; type: cell-free
T1 sequence (whole entry): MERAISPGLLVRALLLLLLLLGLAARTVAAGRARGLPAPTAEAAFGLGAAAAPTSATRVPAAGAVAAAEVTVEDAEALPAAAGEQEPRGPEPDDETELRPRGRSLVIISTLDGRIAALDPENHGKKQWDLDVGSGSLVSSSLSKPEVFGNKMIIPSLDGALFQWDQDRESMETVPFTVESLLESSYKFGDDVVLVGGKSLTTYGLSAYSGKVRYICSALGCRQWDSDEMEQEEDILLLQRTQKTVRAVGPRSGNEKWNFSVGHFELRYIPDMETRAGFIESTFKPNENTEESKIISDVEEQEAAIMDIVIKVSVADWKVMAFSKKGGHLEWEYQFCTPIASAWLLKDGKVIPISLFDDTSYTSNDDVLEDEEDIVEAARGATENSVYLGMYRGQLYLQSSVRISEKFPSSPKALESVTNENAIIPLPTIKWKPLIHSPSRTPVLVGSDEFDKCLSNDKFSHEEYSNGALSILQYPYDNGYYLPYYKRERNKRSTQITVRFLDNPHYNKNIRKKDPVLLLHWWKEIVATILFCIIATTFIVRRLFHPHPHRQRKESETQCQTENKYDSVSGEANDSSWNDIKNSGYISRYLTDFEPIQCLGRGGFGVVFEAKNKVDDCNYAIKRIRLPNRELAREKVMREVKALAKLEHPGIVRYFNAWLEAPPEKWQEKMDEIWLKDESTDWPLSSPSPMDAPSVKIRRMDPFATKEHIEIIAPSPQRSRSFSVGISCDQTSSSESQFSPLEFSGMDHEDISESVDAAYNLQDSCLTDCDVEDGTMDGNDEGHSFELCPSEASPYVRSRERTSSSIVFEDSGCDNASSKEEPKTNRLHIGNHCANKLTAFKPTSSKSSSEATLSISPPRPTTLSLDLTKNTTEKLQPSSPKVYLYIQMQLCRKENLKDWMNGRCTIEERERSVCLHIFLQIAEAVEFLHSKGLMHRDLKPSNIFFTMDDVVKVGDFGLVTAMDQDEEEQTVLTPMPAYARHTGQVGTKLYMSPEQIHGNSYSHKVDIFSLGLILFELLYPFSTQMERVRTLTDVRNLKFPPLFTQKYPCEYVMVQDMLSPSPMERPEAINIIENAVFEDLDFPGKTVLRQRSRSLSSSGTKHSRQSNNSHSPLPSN

[3] = target: T2, Mitogen-activated protein kinase kinase kinase 3 (Homo sapiens) (UniProt Q99759); experiment: Inhibition of human MAP3K3 in HL-60 cells lysate assessed as reduction of labeling of acyl-phosphate ATP probe at 100 nM; type: cell-free
T2 sequence (whole entry): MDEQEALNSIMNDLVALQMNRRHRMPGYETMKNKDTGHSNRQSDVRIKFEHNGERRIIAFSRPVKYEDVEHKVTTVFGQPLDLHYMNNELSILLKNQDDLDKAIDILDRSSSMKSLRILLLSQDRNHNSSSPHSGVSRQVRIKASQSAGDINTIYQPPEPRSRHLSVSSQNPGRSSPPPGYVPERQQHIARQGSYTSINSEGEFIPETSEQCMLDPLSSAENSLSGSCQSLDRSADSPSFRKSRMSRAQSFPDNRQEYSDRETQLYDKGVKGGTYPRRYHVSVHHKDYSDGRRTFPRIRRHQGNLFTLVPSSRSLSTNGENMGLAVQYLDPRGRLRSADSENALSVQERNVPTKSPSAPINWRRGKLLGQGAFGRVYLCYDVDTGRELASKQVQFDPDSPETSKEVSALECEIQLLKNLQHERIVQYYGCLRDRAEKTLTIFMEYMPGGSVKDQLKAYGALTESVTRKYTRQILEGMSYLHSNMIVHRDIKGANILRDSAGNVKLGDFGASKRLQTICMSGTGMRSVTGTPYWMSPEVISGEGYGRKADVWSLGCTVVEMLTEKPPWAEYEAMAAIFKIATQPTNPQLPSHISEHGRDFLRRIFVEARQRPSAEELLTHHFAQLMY

HL-60 [4] = experiment: Inhibition of human MST4/YSK1 in HL-60 cells lysate assessed as reduction of labeling of acyl-phosphate ATP probe at 100 nM
[5] = target: Mitogen-activated protein kinase kinase kinase kinase 4 (Homo sapiens) (UniProt O95819); experiment: Inhibition of human ZC1/HGK in HL-60 cells lysate assessed as reduction of labeling of acyl-phosphate ATP probe at 100 nM; type: cell-free
Chain of Mitogen-activated protein kinase kinase kinase kinase 4 (Homo sapiens) (O95819 2-1239 limits assumed): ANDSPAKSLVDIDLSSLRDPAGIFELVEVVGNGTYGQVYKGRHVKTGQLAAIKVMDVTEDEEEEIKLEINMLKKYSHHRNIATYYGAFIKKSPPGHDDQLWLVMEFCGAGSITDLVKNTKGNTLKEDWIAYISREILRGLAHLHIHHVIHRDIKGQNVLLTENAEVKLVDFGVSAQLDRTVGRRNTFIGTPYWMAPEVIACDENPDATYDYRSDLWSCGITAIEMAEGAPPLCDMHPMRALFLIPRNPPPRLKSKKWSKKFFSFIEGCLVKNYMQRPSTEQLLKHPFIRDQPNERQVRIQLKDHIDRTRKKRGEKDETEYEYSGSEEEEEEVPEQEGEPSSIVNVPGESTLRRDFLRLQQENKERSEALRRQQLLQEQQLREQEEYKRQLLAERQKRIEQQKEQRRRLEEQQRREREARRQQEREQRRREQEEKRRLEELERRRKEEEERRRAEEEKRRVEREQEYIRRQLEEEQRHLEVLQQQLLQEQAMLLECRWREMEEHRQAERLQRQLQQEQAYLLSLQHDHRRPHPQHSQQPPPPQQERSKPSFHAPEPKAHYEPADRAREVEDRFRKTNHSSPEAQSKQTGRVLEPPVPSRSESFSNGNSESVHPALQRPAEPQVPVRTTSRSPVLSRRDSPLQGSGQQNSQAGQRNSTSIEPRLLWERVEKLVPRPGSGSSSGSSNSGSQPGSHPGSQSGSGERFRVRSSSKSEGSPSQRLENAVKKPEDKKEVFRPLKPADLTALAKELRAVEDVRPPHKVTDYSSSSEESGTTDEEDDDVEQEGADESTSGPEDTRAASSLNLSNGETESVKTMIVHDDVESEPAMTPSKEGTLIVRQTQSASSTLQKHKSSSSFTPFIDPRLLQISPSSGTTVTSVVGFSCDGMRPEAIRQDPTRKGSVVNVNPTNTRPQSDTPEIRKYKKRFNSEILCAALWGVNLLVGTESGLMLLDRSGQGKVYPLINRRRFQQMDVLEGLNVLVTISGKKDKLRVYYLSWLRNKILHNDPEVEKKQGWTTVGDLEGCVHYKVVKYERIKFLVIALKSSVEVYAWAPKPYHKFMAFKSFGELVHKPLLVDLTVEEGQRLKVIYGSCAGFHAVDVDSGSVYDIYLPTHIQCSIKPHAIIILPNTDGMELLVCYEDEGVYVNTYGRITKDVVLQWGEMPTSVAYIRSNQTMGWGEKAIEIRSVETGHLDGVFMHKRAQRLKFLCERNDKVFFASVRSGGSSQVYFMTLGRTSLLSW

[6] = target: Cyclin-dependent kinase 6 (Homo sapiens) (UniProt Q00534); experiment: Inhibition of human CDK6 in HL-60 cells lysate assessed as reduction of labeling of acyl-phosphate ATP probe at 100 nM; type: cell-free
Chain of Cyclin-dependent kinase 6 (Homo sapiens) (Q00534 whole entry): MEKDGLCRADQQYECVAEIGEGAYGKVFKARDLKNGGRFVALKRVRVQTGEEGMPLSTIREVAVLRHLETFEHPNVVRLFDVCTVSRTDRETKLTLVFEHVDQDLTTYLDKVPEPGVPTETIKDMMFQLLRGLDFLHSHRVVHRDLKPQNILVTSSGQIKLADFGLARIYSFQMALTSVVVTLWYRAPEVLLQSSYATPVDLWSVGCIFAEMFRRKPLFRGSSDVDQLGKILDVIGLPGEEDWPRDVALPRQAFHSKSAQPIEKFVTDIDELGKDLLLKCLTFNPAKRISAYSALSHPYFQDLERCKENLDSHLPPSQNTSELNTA

HL-60 [7] = experiment: Inhibition of human P38delta/P38gamma in HL-60 cells lysate assessed as reduction of labeling of acyl-phosphate ATP probe at 100 nM

Chain of eIF-2-alpha kinase GCN2 (Homo sapiens) (Q9P2K8 whole entry, the tested form may be a part): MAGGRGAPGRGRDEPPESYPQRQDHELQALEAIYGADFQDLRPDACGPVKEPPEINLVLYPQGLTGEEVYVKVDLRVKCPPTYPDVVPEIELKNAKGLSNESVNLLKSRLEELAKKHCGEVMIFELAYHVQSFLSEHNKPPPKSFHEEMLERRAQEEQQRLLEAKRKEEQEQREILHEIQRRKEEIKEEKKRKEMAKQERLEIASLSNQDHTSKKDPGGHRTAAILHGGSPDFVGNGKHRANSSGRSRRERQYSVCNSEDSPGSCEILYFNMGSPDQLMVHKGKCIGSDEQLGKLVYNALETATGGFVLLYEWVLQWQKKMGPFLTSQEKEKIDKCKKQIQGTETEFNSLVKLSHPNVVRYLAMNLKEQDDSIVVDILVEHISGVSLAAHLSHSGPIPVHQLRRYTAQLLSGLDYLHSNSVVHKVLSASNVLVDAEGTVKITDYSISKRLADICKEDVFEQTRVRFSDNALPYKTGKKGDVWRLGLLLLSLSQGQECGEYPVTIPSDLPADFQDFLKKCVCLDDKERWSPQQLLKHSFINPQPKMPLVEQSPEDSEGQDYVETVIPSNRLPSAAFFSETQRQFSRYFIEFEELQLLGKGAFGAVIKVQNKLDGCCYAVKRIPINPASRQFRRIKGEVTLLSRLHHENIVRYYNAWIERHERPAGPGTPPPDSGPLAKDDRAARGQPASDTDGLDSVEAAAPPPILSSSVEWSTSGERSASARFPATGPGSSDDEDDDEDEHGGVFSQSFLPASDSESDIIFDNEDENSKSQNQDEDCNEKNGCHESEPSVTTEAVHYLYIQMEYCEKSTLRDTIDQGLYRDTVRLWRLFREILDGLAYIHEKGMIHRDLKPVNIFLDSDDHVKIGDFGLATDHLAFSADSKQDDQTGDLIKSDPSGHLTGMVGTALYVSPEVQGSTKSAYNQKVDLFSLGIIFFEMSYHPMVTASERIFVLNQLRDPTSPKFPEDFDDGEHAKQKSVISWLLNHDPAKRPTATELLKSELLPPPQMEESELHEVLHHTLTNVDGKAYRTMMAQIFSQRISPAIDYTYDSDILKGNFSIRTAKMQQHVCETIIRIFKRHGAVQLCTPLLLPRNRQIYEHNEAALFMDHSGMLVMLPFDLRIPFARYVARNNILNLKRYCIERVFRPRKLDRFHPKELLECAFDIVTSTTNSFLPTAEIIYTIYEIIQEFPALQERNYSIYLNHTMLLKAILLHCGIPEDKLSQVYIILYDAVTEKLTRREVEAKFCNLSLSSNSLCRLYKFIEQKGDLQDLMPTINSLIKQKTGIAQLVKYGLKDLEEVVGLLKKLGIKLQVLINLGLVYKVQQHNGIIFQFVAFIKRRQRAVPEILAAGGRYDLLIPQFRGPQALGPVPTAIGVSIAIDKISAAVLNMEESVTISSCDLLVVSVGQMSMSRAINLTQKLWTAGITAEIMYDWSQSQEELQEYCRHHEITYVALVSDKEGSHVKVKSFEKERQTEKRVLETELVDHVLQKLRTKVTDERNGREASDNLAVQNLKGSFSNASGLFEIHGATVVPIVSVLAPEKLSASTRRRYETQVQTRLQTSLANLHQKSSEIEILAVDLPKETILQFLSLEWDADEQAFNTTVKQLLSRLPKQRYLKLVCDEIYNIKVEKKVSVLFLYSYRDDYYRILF

Row | inhibition [1] | inhibition [2] | inhibition [3] | inhibition [5] | inhibition [6] | Compound | inhibition at 0.1 µM (HL-60 [4]) | inhibition at 0.1 µM (HL-60 [7])
1 | < 35% | < 35% | < 35% | < 35% | < 35% | C[C@H]1COc2c(NCCCc3ccccn3)c(F)c(N)c3c(=O)c(C#N)cn1c23 | < 35% | < 35%
2 | < 35% | < 35% | < 35% | < 35% | < 35% | C[C@H]1COc2c(NCCCn3cccn3)c(F)c(N)c3c(=O)c(C#N)cn1c23 | < 35% | < 35%
3 | < 35% | < 35% | < 35% | < 35% | < 35% | C[C@H]1COc2c(NCCCc3ccccn3)c(F)c(N)c3c(=O)c(C(=O)O)cn1c23 | < 35% | < 35%
4 | < 35% | < 35% | < 35% | < 35% | < 35% | C[C@H]1COc2c(NCCCn3cccn3)c(F)c(N)c3c(=O)c(C(=O)O)cn1c23 | < 35% | < 35%
